Data taken from PMC12749166, “Fragment-based drug design of a bacterial kinase inhibitor capable of increasing the antibiotic sensitivity of clinical isolates” (Communications Chemistry, 2025).

Key:
[1] = biological target: T1, APH(3’)-IIb (Pseudomonas aeruginosa, UniProt Q9HWR2, M95L); assay: Isothermal Titration Calorimetry; type: binding, P. aeruginosa
T1 sequence (Q9HWR2 1-268 M95L): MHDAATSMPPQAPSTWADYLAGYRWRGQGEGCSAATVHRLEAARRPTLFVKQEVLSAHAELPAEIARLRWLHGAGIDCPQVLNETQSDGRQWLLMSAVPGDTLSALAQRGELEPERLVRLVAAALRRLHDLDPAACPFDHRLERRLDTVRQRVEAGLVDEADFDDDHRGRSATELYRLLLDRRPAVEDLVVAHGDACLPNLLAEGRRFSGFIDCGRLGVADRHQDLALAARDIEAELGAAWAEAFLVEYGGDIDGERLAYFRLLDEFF
Experimental: ITC experiments were performed on three different machines: a MicroCal VP-ITC (GE Healthcare), a MicroCal PEAQ-ITC (Malvern), or a MicroCal iTC200 (Malvern). The architecture and principles are similar for the three different systems. The experiments were carried out in Buffer HEPES at 25 °C. Titrations consisted of twenty injections of 1.5 µL inhibitors, every 120 seconds, into the measuring cell using the injection syringe rotating at 750 rpm. The data were analyzed using the MicroCal PEAQ-ITC software (v. 1.52, Malvern) using the single-site binding model to fit the raw data. The standard error of the Kd value was determined from measurements made on distinct samples (n indicated in the text).

[2] = biological target: T2, APH(3’)-Ib (Escherichia coli, UniProt P14509); assay: biochemical; parameters: species or system E. coli and K. pneumoniae
T2 construct: His-tag (inferred from HisTrap purification); made in house; host or cells: E. coli BL21
T2 sequence (P14509 whole entry): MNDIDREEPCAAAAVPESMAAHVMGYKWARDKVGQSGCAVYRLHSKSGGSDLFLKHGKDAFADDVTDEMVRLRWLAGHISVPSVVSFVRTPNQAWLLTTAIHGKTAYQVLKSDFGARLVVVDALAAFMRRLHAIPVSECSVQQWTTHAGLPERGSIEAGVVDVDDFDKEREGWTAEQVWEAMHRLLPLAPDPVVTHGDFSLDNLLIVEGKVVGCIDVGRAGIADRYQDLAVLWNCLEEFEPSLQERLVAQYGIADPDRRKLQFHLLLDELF

[3] = tested on: APH(3’)-Ic; type: biochemical, A. baumannii; settings: 100 µM of 83
[4] = biological target: T3, APH(3’)-IIa (Klebsiella pneumoniae, UniProt P00552); assay: biochemical; parameters: species or system K. pneumoniae
T3 construct: His-tag (inferred from HisTrap purification); made in house; host or cells: E. coli BL21
T3 sequence (P00552 whole entry): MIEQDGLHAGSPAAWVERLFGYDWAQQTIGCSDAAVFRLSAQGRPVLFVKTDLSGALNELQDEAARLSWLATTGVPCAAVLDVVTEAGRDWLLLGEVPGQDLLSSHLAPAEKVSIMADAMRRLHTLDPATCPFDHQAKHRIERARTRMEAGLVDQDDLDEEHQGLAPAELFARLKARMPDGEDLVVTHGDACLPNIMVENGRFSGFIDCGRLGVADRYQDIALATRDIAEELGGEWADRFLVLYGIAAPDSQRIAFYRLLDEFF

[5] = tested on: P. aeruginosa C0307; assay: Checkerboard assay of 83 with kanamycin A; type: cell-based; settings: for MIC of kanamycin A: 18 h at 37 °C

Clc1cnc2[nH]ccc2c1-c1ccn[nH]1 [Compound 83]
Kd [1]: 0.27 ± 0.05 µM
ΔH ([1]; ITC): -13.6 kcal/mol
inhibition at 100 µM [2]: 55%
Inhibition (%) [3]: 35%
inhibition at 100 µM [4]: 76%
MIC of kanamycin A ([5]; 0 µg mL^−1 imipenem, [83] 2 µg mL^−1): 64 µg/mL
MIC of kanamycin A ([5]; 0 µg mL^−1 imipenem, [83] 4 µg mL^−1): 64 µg/mL
MIC of kanamycin A ([5]; 0 µg mL^−1 imipenem, [83] 8 µg mL^−1): 64 µg/mL
MIC of kanamycin A ([5]; 0 µg mL^−1 imipenem, [83] 16 µg mL^−1): 64 µg/mL
MIC of kanamycin A ([5]; 0 µg mL^−1 imipenem, [83] 32 µg mL^−1): 64 µg/mL
MIC of kanamycin A ([5]; 0 µg mL^−1 imipenem, [83] 64 µg mL^−1): 64 µg/mL
MIC of kanamycin A ([5]; 0 µg mL^−1 imipenem, [83] 128 µg mL^−1): 32 µg/mL
MIC of kanamycin A ([5]; 0.05 µg mL^−1 imipenem, [83] 2 µg mL^−1): 64 µg/mL
MIC of kanamycin A ([5]; 0.05 µg mL^−1 imipenem, [83] 4 µg mL^−1): 64 µg/mL
MIC of kanamycin A ([5]; 0.05 µg mL^−1 imipenem, [83] 8 µg mL^−1): 64 µg/mL
MIC of kanamycin A ([5]; 0.05 µg mL^−1 imipenem, [83] 16 µg mL^−1): 64 µg/mL
MIC of kanamycin A ([5]; 0.05 µg mL^−1 imipenem, [83] 32 µg mL^−1): 64 µg/mL
MIC of kanamycin A ([5]; 0.05 µg mL^−1 imipenem, [83] 64 µg mL^−1): 64 µg/mL
MIC of kanamycin A ([5]; 0.05 µg mL^−1 imipenem, [83] 128 µg mL^−1): 32 µg/mL
checkerboard well reading (growth) ([5]; Supp. Figure 3 A, 83 1 µg.mL-1, kanamycin A 0 µg.mL-1): 1.117
checkerboard well reading (growth) ([5]; Supp. Figure 3 A, 83 1 µg.mL-1, kanamycin A 2 µg.mL-1): 1.340
checkerboard well reading (growth) ([5]; Supp. Figure 3 A, 83 1 µg.mL-1, kanamycin A 4 µg.mL-1): 1.454
checkerboard well reading (growth) ([5]; Supp. Figure 3 A, 83 1 µg.mL-1, kanamycin A 8 µg.mL-1): 1.268
checkerboard well reading (growth) ([5]; Supp. Figure 3 A, 83 16 µg.mL-1, kanamycin A 0 µg.mL-1): 1.272
checkerboard well reading (growth) ([5]; Supp. Figure 3 A, 83 16 µg.mL-1, kanamycin A 2 µg.mL-1): 1.771
checkerboard well reading (growth) ([5]; Supp. Figure 3 A, 83 16 µg.mL-1, kanamycin A 4 µg.mL-1): 1.508
checkerboard well reading (growth) ([5]; Supp. Figure 3 A, 83 16 µg.mL-1, kanamycin A 8 µg.mL-1): 1.668
checkerboard well reading (growth) ([5]; Supp. Figure 3 A, 83 16 µg.mL-1, kanamycin A 16 µg.mL-1): 1.123
checkerboard well reading (growth) ([5]; Supp. Figure 3 A, 83 16 µg.mL-1, kanamycin A 32 µg.mL-1): 1.123
checkerboard well reading (growth) ([5]; Supp. Figure 3 A, 83 16 µg.mL-1, kanamycin A 64 µg.mL-1): 0.184
checkerboard well reading (growth) ([5]; Supp. Figure 3 A, 83 16 µg.mL-1, kanamycin A 128 µg.mL-1): 0.041
checkerboard well reading (growth) ([5]; Supp. Figure 3 A, 83 32 µg.mL-1, kanamycin A 0 µg.mL-1): 1.376
checkerboard well reading (growth) ([5]; Supp. Figure 3 A, 83 32 µg.mL-1, kanamycin A 2 µg.mL-1): 1.667
checkerboard well reading (growth) ([5]; Supp. Figure 3 A, 83 32 µg.mL-1, kanamycin A 4 µg.mL-1): 1.435
checkerboard well reading (growth) ([5]; Supp. Figure 3 A, 83 32 µg.mL-1, kanamycin A 8 µg.mL-1): 1.524
checkerboard well reading (growth) ([5]; Supp. Figure 3 A, 83 32 µg.mL-1, kanamycin A 16 µg.mL-1): 1.359
checkerboard well reading (growth) ([5]; Supp. Figure 3 A, 83 32 µg.mL-1, kanamycin A 32 µg.mL-1): 1.130
checkerboard well reading (growth) ([5]; Supp. Figure 3 A, 83 32 µg.mL-1, kanamycin A 64 µg.mL-1): 0.118
checkerboard well reading (growth) ([5]; Supp. Figure 3 A, 83 32 µg.mL-1, kanamycin A 128 µg.mL-1): 0.042
checkerboard well reading (growth) ([5]; Supp. Figure 3 A, 83 64 µg.mL-1, kanamycin A 0 µg.mL-1): 1.213
checkerboard well reading (growth) ([5]; Supp. Figure 3 A, 83 64 µg.mL-1, kanamycin A 2 µg.mL-1): 1.320
checkerboard well reading (growth) ([5]; Supp. Figure 3 A, 83 64 µg.mL-1, kanamycin A 4 µg.mL-1): 1.451
checkerboard well reading (growth) ([5]; Supp. Figure 3 A, 83 64 µg.mL-1, kanamycin A 8 µg.mL-1): 1.433
checkerboard well reading (growth) ([5]; Supp. Figure 3 A, 83 64 µg.mL-1, kanamycin A 16 µg.mL-1): 1.312
checkerboard well reading (growth) ([5]; Supp. Figure 3 A, 83 64 µg.mL-1, kanamycin A 32 µg.mL-1): 1.055
checkerboard well reading (growth) ([5]; Supp. Figure 3 A, 83 64 µg.mL-1, kanamycin A 64 µg.mL-1): 0.042
checkerboard well reading (growth) ([5]; Supp. Figure 3 A, 83 64 µg.mL-1, kanamycin A 128 µg.mL-1): 0.044
checkerboard well reading (growth) ([5]; Supp. Figure 3 A, 83 128 µg.mL-1, kanamycin A 0 µg.mL-1): 1.324
checkerboard well reading (growth) ([5]; Supp. Figure 3 A, 83 128 µg.mL-1, kanamycin A 2 µg.mL-1): 1.439
checkerboard well reading (growth) ([5]; Supp. Figure 3 A, 83 128 µg.mL-1, kanamycin A 4 µg.mL-1): 1.308
checkerboard well reading (growth) ([5]; Supp. Figure 3 A, 83 128 µg.mL-1, kanamycin A 8 µg.mL-1): 1.307
checkerboard well reading (growth) ([5]; Supp. Figure 3 A, 83 128 µg.mL-1, kanamycin A 16 µg.mL-1): 1.218
checkerboard well reading (growth) ([5]; Supp. Figure 3 A, 83 128 µg.mL-1, kanamycin A 32 µg.mL-1): 0.227
checkerboard well reading (growth) ([5]; Supp. Figure 3 A, 83 128 µg.mL-1, kanamycin A 64 µg.mL-1): 0.039
checkerboard well reading (growth) ([5]; Supp. Figure 3 A, 83 128 µg.mL-1, kanamycin A 128 µg.mL-1): 0.039
checkerboard well reading (growth) ([5]; Supp. Figure 3 B, 83 1 µg.mL-1, kanamycin A 0 µg.mL-1): 1.239
checkerboard well reading (growth) ([5]; Supp. Figure 3 B, 83 1 µg.mL-1, kanamycin A 2 µg.mL-1): 1.239
checkerboard well reading (growth) ([5]; Supp. Figure 3 B, 83 1 µg.mL-1, kanamycin A 4 µg.mL-1): 1.159
checkerboard well reading (growth) ([5]; Supp. Figure 3 B, 83 1 µg.mL-1, kanamycin A 8 µg.mL-1): 1.192
checkerboard well reading (growth) ([5]; Supp. Figure 3 B, 83 1 µg.mL-1, kanamycin A 16 µg.mL-1): 1.219
checkerboard well reading (growth) ([5]; Supp. Figure 3 B, 83 1 µg.mL-1, kanamycin A 32 µg.mL-1): 1.181
checkerboard well reading (growth) ([5]; Supp. Figure 3 B, 83 1 µg.mL-1, kanamycin A 64 µg.mL-1): 0.113
checkerboard well reading (growth) ([5]; Supp. Figure 3 B, 83 1 µg.mL-1, kanamycin A 128 µg.mL-1): 0.042
